Series [1] relates to Plasmodium falciparum. Put plainly: NOVARTIS: Inhibition of Plasmodium falciparum W2 (drug-resistant) proliferation in erythrocyte-based infection assay. Format: functional, organism-based. Particulars: Plasmodium falciparum, W2; read-out: EC50.
Series [2] concerns Plasmodium falciparum. Put plainly: NOVARTIS: Inhibition of Plasmodium falciparum 3D7 (drug-susceptible) proliferation in erythrocyte-based infection assay. The series is classed as functional, organism-based. The settings on record: Plasmodium falciparum, 3D7.
The nature of series [3]: NOVARTIS: Cytotoxicity against human hepatocellular carcinoma cell line (Huh7). The series is classed as toxicity, cell-based, Huh-7. The settings on record: Huh7 cells (hepatocellular carcinoma cell line).

Consider `NCCCCCCNc1ccnc2cc(Cl)ccc12`, for which the figures for the EC50 in the series with Plasmodium falciparum [1] and in the series on Plasmodium falciparum [2] were 132 nM and 288 nM, respectively. Besides, the CC50 in series [3] was greater than 10000 nM.
The matching figures for `OCCNc1nc(Nc2ccccc2)nc2ccccc12`: 626 nM, 167 nM and 47500 nM.
For `COc1ccc(-c2nc(NC(=O)CS(=O)(=O)c3ccc(F)cc3)sc2C)cc1` the same measures were 560 nM, 212 nM and 44100 nM.
The matching figures for `CCOC(=O)C1=C(C)N=c2sc(=Cc3cc(Cl)ccc3O)c(=O)n2C1c1ccc2c(c1)OCO2` (stereo not given): 1310 nM, 4930 nM and greater than 100000 nM.
In the case of `O=C(COC(c1cccs1)c1cccnc1Cl)N1CCN(CCO)CC1` (stereo not given), the EC50 with Plasmodium falciparum [1] was 1290 nM; in the series with Plasmodium falciparum [2], greater than 12500 nM. This compound came in with a cytotoxic concentration (CC50) in series [3] greater than 100000 nM.
Regarding `CN1CCN(CCCNc2ccnc3cc4ccccc4cc23)CC1`, the EC50 in the series with Plasmodium falciparum [1] is 78.5 nM; in the series on Plasmodium falciparum [2], 24.1 nM. Besides, the 50% cytotoxic concentration (CC50) in series [3] was determined as 5930 nM.
The matching figures for `COc1cc2c(cc1C=C(C#N)c1cccc(C)c1)OCO2`: 1310 nM, greater than 9740 nM and greater than 100000 nM.
For `COc1cc(C(C(=O)NCc2ccccc2)N(C(=O)c2snc(C(N)=O)c2N)c2ccc(C(C)C)cc2)cc(OC)c1OC` (stereo not given) the same measures were 1290 nM, 2450 nM and greater than 100000 nM.
Take `CCN1CCN(c2cc(C)c3cc(NC(=O)c4cccc([N+](=O)[O-])c4)ccc3n2)CC1`: the EC50 was 267 nM in the series with Plasmodium falciparum [1] and 96 nM in the series with Plasmodium falciparum [2]. In series [3], the 50% cytotoxic concentration (CC50) is 20300 nM.
The matching figures for `O=C(Nc1ccccc1F)NC1CC2CCCC(C1)N2CCc1ccccc1` (stereo not given): 140 nM, 440 nM and greater than 10600 nM.
For `CCCN(CCC)CCCNc1ccc(C(=O)Nc2cccc(OC)c2)cc1[N+](=O)[O-]` the same measures were 320 nM, 159 nM and 24000 nM.
For `CCC(CC)C(=O)Nc1c2c(nn1-c1cccc(Cl)c1)C[S+]([O-])C2` (stereo not given) the same measures were 1300 nM, 11900 nM and greater than 100000 nM.
With `CN(CCCNc1ccnc2cc(Cl)ccc12)C(=O)C12CC3CC(CC(C3)C1)C2`, the results for the EC50 in the series with Plasmodium falciparum [1] and with Plasmodium falciparum [2] were 184 nM and 53 nM, respectively. Moreover, the CC50 in series [3] was 14100 nM.
On to `COc1ccc2cc(CNC3CCN(Cc4ccccc4)CC3)c(=O)[nH]c2c1`, for which the EC50 in the series on Plasmodium falciparum [1] was 856 nM; in the series with Plasmodium falciparum [2] it was 671 nM. The same compound registered a CC50 in series [3] greater than 65900 nM.
The matching figures for `COc1ccc(C=C2N=C(c3ccc(Cl)cc3)N(c3cc(Cl)ccc3C)C2=O)cc1OC`: 1320 nM, 3480 nM and greater than 100000 nM.
`O=C(O)CS(=O)(=O)c1ccc(C(=O)NCC(c2cccnc2)N2CCOCC2)cn1` (stereo not given): the EC50 with Plasmodium falciparum [1] is 131 nM; with Plasmodium falciparum [2] it was greater than 876 nM. The compound further registered a cytotoxic concentration (CC50) in series [3] greater than 10000 nM.
For `O=C(O)CCCNC(=O)C(O)(c1ccccc1)c1ccccc1` the same measures were 1330 nM, greater than 12500 nM and greater than 100000 nM.
The matching figures for `COc1ccc(CCNC(=O)CN(c2ccc(OC)c(OC)c2)S(=O)(=O)c2ccc(C)cc2)cc1OC`: 1330 nM, greater than 12500 nM and greater than 100000 nM.
On to `COc1ccccc1CNC(=O)CCn1c(=O)[nH]c2ccccc2c1=O`, for which the half-maximal effective concentration (EC50) in the series on Plasmodium falciparum [1] is 133 nM; in the series on Plasmodium falciparum [2], 537 nM. This compound also came in with a cytotoxic concentration (CC50) in series [3] greater than 10000 nM.
For `CCNC(=O)C1CCN(c2cccc3c2C(=O)N(C2CCCCCCC2)C3=O)CC1` the same measures were 1310 nM, 1750 nM and greater than 100000 nM.
For `COc1ccc2nc(Nc3nc(-c4ccccn4)cs3)sc2c1` the same measures were 93.5 nM, 91.8 nM and 7310 nM.
The matching figures for `CSc1ccc(/C=C/C(=O)NC(=O)c2ccccc2O)cc1`: 131 nM, 127 nM and greater than 10000 nM.
`COc1ccc(-c2c[n+](CC(=O)c3ccccc3Cl)c3n2CCC3)cc1`: the concentration for a half-maximal effect (EC50) worked out at 1290 nM in the series on Plasmodium falciparum [1] and 1070 nM with Plasmodium falciparum [2]. Further, the CC50 in series [3] was greater than 100000 nM.
The matching figures for `Oc1ccc(-c2ccccc2)cc1CN1CCCCC1`: 132 nM, 1080 nM and greater than 10000 nM.
For `Oc1c2c(nc3cc(-c4ccc(Br)cc4)nn13)CCCC2` the same measures were 1300 nM, 522 nM and greater than 100000 nM.
The matching figures for `COC(=O)[C@@H]1C[C@@H](NC(=O)c2ccc(OC)cc2OC)CN1Cc1cc(C)ccc1C`: 1320 nM, 1070 nM and greater than 100000 nM.
`CCCOC(=O)C1=C(C)NC2=C(C(=O)CC(c3ccc(OC)c(OC)c3)C2)C1c1ccc(O)c(OCC)c1` (stereo not given): the figures for the concentration giving a half-maximal response (EC50) in the series on Plasmodium falciparum [1] and in the series on Plasmodium falciparum [2] were 1280 nM and 2400 nM, respectively. Besides, the CC50 in series [3] is greater than 100000 nM.
For `COc1ccc(C(=O)C[N+]2=C(C)c3ccc(C)n3CC2)cc1`, the values for the EC50 with Plasmodium falciparum [1] and in the series on Plasmodium falciparum [2] were 1290 nM and 1170 nM, respectively. The compound also had a half-maximal cytotoxic concentration (CC50) in series [3] greater than 100000 nM.
For `Cc1cc(I)ccc1NC(=O)CNC(=O)OCc1ccccc1` the same measures were 1280 nM, greater than 12500 nM and greater than 100000 nM.
The matching figures for `O=C(NCc1ccc(Cl)cc1)C(=O)NCc1ccccn1`: 105 nM, 1320 nM and 8240 nM.
The matching figures for `Oc1ccc(Br)cc1CN1CCN(c2ccccn2)CC1`: 438 nM, 3170 nM and 34600 nM.
As to `CC(=O)N(C1=C(N(C)C)C(=O)c2ccccc2C1=O)c1ccc(Cl)cc1`, the EC50 was determined as 69.1 nM with Plasmodium falciparum [1] and 31.4 nM in the series on Plasmodium falciparum [2]. In addition, the CC50 in series [3] was 5460 nM.
The matching figures for `CCc1ccccc1N(CC(=O)NC1CCCCC1)C(=O)CCC(=O)Nc1ccccn1`: 1270 nM, 835 nM and greater than 100000 nM.
The matching figures for `O=C(NNC(=O)c1csnn1)c1ccc(Cl)cc1`: 1290 nM, 781 nM and greater than 100000 nM.
For `O=C(Nc1ccc(CC2=NCCCN2)cc1)c1ccc(C(=O)Nc2ccc(CC3=NCCCN3)cc2)cc1` the same measures were 128 nM, 127 nM and greater than 10000 nM.
On to `CCOC(=O)C1=CN(c2cc(C)ccc2C)C=C(C(=O)OCC)C1c1ccccc1OC`, for which the EC50 was 1280 nM in the series on Plasmodium falciparum [1] and 4430 nM in the series with Plasmodium falciparum [2]. Moreover, the CC50 in series [3] was greater than 100000 nM.
For `NC(=NOC(=O)c1ccccc1I)c1ccccn1` the same measures were 831 nM, 6030 nM and 63000 nM.
Consider `COc1ccc([N+](=O)[O-])cc1C=NNc1nc(Nc2ccc([N+](=O)[O-])cc2)nc(N2CCN(C)CC2)n1`, for which the concentration giving a half-maximal response (EC50) with Plasmodium falciparum [1] was determined as 388 nM; with Plasmodium falciparum [2], 859 nM. Further, the midpoint of cytotoxicity in series [3], the CC50, lay at 30700 nM.
Take `COC(=O)c1c(NC(=O)c2c(-c3ccccc3)noc2C)sc2c1CCC2`: the concentration for a half-maximal effect (EC50) in the series with Plasmodium falciparum [1] was determined as 1330 nM; in the series with Plasmodium falciparum [2], 2980 nM. This compound returned a CC50 in series [3] greater than 100000 nM.
For `N#CCSc1ncccc1C(=O)NCCc1ccc(Oc2ccccc2)cc1`, the EC50 with Plasmodium falciparum [1] is greater than 130 nM; in the series on Plasmodium falciparum [2] it was 1630 nM. In series [3], this compound had a 50% cytotoxic concentration (CC50) greater than 10000 nM.
On to `CN(C)/C=C1\Oc2ccccc2N=C1Cl`, for which the EC50 with Plasmodium falciparum [1] came out at 132 nM; in the series on Plasmodium falciparum [2] it was 153 nM. Moreover, the CC50 in series [3] is greater than 10000 nM.
For `CCCCOc1ccc(C(=O)Oc2ccccc2-c2nc3cc(C)ccn3c2NC(C)(C)CC(C)(C)C)cc1` the same measures were 130 nM, 804 nM and greater than 10000 nM.
For `COc1cccc2c(C)nc(N=C(N)N)nc12` the same measures were 688 nM, 291 nM and 53500 nM.
The matching figures for `COC(=O)CNC(c1ccccc1)c1cc(Br)ccc1NC(=O)C(Cc1ccccc1)NC(=O)OCc1ccccc1` (stereo not given): 1280 nM, 4080 nM and greater than 100000 nM.
Take `c1ccc(-c2nn(-c3ccccc3)[n+](-c3cccc4ccccc34)n2)cc1`: the concentration for a half-maximal effect (EC50) is 131 nM in the series on Plasmodium falciparum [1] and greater than 417 nM in the series with Plasmodium falciparum [2]. In series [3], this compound gave a CC50 greater than 10000 nM.
Consider `CC(Sc1nnc2c3ccccc3n(Cc3ccccc3)c2n1)C(=O)N1CCN(C(=O)C(c2ccccc2)c2ccccc2)C(C)C1` (stereo not given), for which the EC50 amounted to 127 nM in the series on Plasmodium falciparum [1] and 914 nM with Plasmodium falciparum [2]. The CC50 in series [3] is greater than 10000 nM.
For `CCOC(=O)c1c(C)[nH]c2c1cc(O)c1ccccc12`, the half-maximal effective concentration (EC50) came out at 126 nM in the series on Plasmodium falciparum [1] and 98.6 nM with Plasmodium falciparum [2]. For the same compound, the 50% cytotoxic concentration (CC50) in series [3] is greater than 10000 nM.
The matching figures for `CC(C)(C)c1ccc(C(=O)N2CCCn3cccc3C2c2ccc(C(C)(C)C)cc2)cc1` (stereo not given): 1290 nM, 1560 nM and greater than 100000 nM.
For `CC[N+]1(CCOc2ccc(C34CC5CC(CC(C5)C3)C4)cc2)CCCCC1` the same measures were 746 nM, 1010 nM and 58200 nM.
The matching figures for `O=C(Nc1ccc(Cl)cc1Cl)c1ccc(-c2nc(-c3ccccc3Cl)cs2)cc1`: 106 nM, 150 nM and greater than 7930 nM.
As to `COc1ccc(NC(=O)CN2CCN(S(=O)(=O)c3cccc([N+](=O)[O-])c3)CC2)c(OC)c1`, the 50% effective concentration (EC50) is 1300 nM in the series with Plasmodium falciparum [1] and greater than 12500 nM in the series on Plasmodium falciparum [2]. The CC50 in series [3] was greater than 100000 nM.
For `Cc1nc(NC(=N)N)nc2ccccc12` the same measures were 858 nM, 887 nM and 66400 nM.
For `Oc1cccc2ccc[n+](CC(O)Cn3c4ccccc4c4ccccc43)c12` (stereo not given) the same measures were 651 nM, 199 nM and 49200 nM.
The matching figures for `CCCn1c(=N)c(C(=O)NC2CCCCC2)cc2c(=O)n3cccc(C)c3nc21`: 1290 nM, 460 nM and greater than 100000 nM.
Take `CC(=NNC(=N)N)c1ccc(C)cc1`: the EC50 in the series on Plasmodium falciparum [1] worked out at 250 nM; with Plasmodium falciparum [2], 2040 nM. Further, in series [3], the midpoint of cytotoxicity, the CC50, lay at 19300 nM.

Source of the values: ChEMBL document CHEMBL1156829 (Proc Natl Acad Sci U S A, 2008).
